“And” between values parts separate entries of the source, which are not always exact repeats. Equal values may be shown once.
Tests used:
[1] = Secondary toxicity screen, overall finding; conditions: 10 μM against 122 targets
Method: (§1) A secondary pharmacological screening of molecules of interest at a fixed concentration is often practiced in the pharmaceutical industry in order to evaluate the effect of the compound on secondary targets that could result in untoward toxicity in-vivo. These secondary screens are well known in the art and can be carried out by labs which specialize in these tests such as MDS-Panlabs and CEREP. A secondary toxicity screen is performed with Quercetin-3′-O-phosphate at a concentration of 10 μM against 122 targets in enzyme, radioligand binding, and cellular assays by MDS Pharma Services by methods well known in the art. Inhibition is found in only the following targets (percent inhibition at 10 μM in parentheses): ATPase, Na+/K+, Heart, Pig (65%), Nitric Oxide Synthase, Endothelial (eNOS) (72%), Protein Tyrosine Kinase, FGFR2 (94%), Protein Tyrosine Kinase, FGFR1(96%), Protein Tyrosine Kinase, Insulin Receptor (91%), Protein Tyrosine Kinase, (82%), Protein Tyrosine Kinase, ZA70 (ZAP-70) (74%), UDP Glucuronosyltransferase, UGT1A1 (52%), Adenosine A1 (50%), Adrenergic α2A (57%), Dopamine D47 (51%), Peripheral Benzodiazepine Receptor (PBR) (53%), Transporter, Monoamine rabbit (68%), Serotonin (5-Hydroxytryptamine) 5-HT1A (62%).

[2] = system: kidney of rats; experiment: Renal pathology in rats co-administered with quercetin-3′-O-phosphate and tacrolimus; type: in vivo, rat
Method: Tissue is removed from the kidney of rats treated with tacrolimus (Prograf®) at 0.5 mg/kg and inert vehicle, and from rats treated with tacrolimus (Prograf®) at 0.5 mg/kg and quercetin-3′-O-phosphate (Q-Phosphate) at 11 mg/kg, 28 mg/kg, and at 114 mg/kg for 25 days. […] The tissue from rats treated with Q-Phosphate and tacrolimus show no vacuoles.

[3] = system: ATPase, Na+/K+, Heart, Pig; experiment: Secondary toxicity screen (MDS Pharma Services), enzyme assay; type: biochemical; conditions: 10 μM
Method: as §1

[4] = system: Peripheral Benzodiazepine Receptor (PBR); experiment: Secondary toxicity screen (MDS Pharma Services), radioligand binding; conditions: 10 μM
Method: as §1

[5] = system: Transporter, Monoamine rabbit; experiment: as above; conditions: 10 μM
Method: as §1

[6] = system: Dopamine D47; experiment: as above; conditions: 10 μM
Method: as §1

[7] = Stability of Quercetin-3′-O-phosphate in water; type: physicochemical; conditions: water at pH 8, 24 hours, ambient temperature
Method: Quercetin-3′-O-phosphate is dissolved in water at about pH 8.

[8] = system: rats; experiment: Blood glucose levels in rats co-administered with quercetin-3′-O-phosphate and tacrolimus; type: in vivo, rat; conditions: for Blood glucose, Mean change from Prograf ® control / Blood glucose, Mean change from Day 1: Q-Phosphate 114 mg/kg + Prograf 0.5 mg/kg i.p.; for Blood glucose, Mean: Q-Phosphate 114 mg/kg i.p. Day 11 to Day 25 + Prograf 0.5 mg/kg i.p., 5 rats; for Blood glucose, individual rats: Q-Phosphate 114 mg/kg i.p. once daily Day 11 to Day 25 + Prograf 0.5 mg/kg i.p. Day 1 to Day 25
Method: One set of 5 rats is treated from day 1 to day 25 with inert vehicle 2 intraperitoneally and treated from day 11 to day 25 with inert vehicle 1 intraperitoneally. […] A third set 5 of rats is treated from day 1 to day 25 with tacrolimus (Prograf®) intraperitoneally at 0.5 mg/kg, and treated from day 11 to day 25 intraperitoneally with quercetin-3′-O-phosphate (Q-Phosphate) at 114 mg/kg. The blood glucose level in the rats is measured on days 1, 10, 15, 20, and 25.

[9] = Solubility of quercetin-3′-O-phosphate in water; type: physicochemical; conditions: about pH 8 (about 4 g in 50 mL)
Method: The resultant solid from concentration of the decantate is added acetonitrile (500 mL) followed by water (50 mL) then 1N hydrochloric acid (approx. 20 mL) until a pH of about 5 is achieved. The solution is concentrated to a volume of about 120 mL. The residue is purified with a 600 g, C-18 reverse phase column with 60 mL injections in a gradient. The gradient is 100% water (1 L), 9:1 water:MeOH (1 L), 8:2 water:MeOH (1 L), 7:3 water:MeOH (1 L), 1:1 water:MeOH. The desired product begins to elute after about 500 mL of 1:1 water:MeOH. The fractions are combined and concentrated. The residue is dissolved in water (40 mL) and solid potassium carbonate (approx. 3 g) is added until pH=8. The pH is adjusted to about 2 with 50% sulfuric acid resulting in the formation of a precipitate. The solid is collected, which contained approximately 10% TEA. The solid is suspended in water (50 mL), and the pH is adjusted to about 8 with solid potassium carbonate to produce a yellow solution. The resultant yellow solution is treated dropwise with 50% sulfuric acid until a pH of about 2 is reached, resulting in the precipitation of a solid. The solid is collected and slurried in water (75 mL). The solid is collected and dried giving 4 g, representing 12% of quercetin-3′-O-phosphate. […]

degradation seen by NMR [7]: no degradation
solubility [9]: ≥ 80 mg/mL
SMILES: O=c1c(O)c(-c2ccc(O)c(OP(=O)(O)O)c2)oc2cc(O)cc(O)c12 [Quercetin-3′-O-phosphate]
toxicity properties (findings of the toxicology screen) [1]: low toxicity properties
protective effect with respect to the kidneys ([2]; co-administered with tacrolimus): significant protective effect
vacuolation of kidney tissue ([2]; tacrolimus 0.5 mg/kg and Q-Phosphate at 11, 28 and 114 mg/kg, 25 days): no vacuoles
percent inhibition [3]: 65%
percent inhibition [4]: 53%
percent inhibition [5]: 68%
percent inhibition [6]: 51%
Blood glucose, Mean change from Prograf ® control ([8]; Day 1): +0.02 g/l
Blood glucose, Mean ([8]; Day 1): 1.29 g/L
Blood glucose, individual rats ([8]; Day 1): 1.18 g/L and 1.19 g/L and 1.41 g/L and 1.36 g/L and 1.30 g/L
Blood glucose, Mean change from Day 1 ([8]; Day 10): +0.65 g/l
Blood glucose, Mean change from Prograf ® control ([8]; Day 10): +0.45 g/l
Blood glucose, Mean ([8]; Day 10): 1.94 g/L
Blood glucose, individual rats ([8]; Day 10): 1.50 g/L and 2.41 g/L and 2.19 g/L and 1.51 g/L and 2.10 g/L
Blood glucose, Mean change from Day 1 ([8]; Day 15): +0.99 g/l
Blood glucose, Mean change from Prograf ® control ([8]; Day 15): -0.26 g/L
Blood glucose, Mean ([8]; Day 15): 2.28 g/L
Blood glucose, individual rats ([8]; Day 15): 2.07 g/L and 2.90 g/L and 3.16 g/L and 1.83 g/L and 1.42 g/L
Blood glucose, Mean change from Day 1 ([8]; Day 20): +1.55 g/l
Blood glucose, Mean change from Prograf ® control ([8]; Day 20): -0.09 g/L
Blood glucose, Mean ([8]; Day 20): 2.84 g/L
Blood glucose, individual rats ([8]; Day 20): 1.99 g/L and 3.28 g/L and 3.67 g/L and 3.58 g/L and 1.67 g/L
Blood glucose, Mean change from Day 1 ([8]; Day 25): +0.87 g/l
Blood glucose, Mean change from Prograf ® control ([8]; Day 25): -0.39 g/L
Blood glucose, Mean ([8]; Day 25): 2.16 g/L
Blood glucose, individual rats ([8]; Day 25): 2.34 g/L and 2.54 g/L and 2.04 g/L and 2.67 g/L and 1.23 g/L
effect on tacrolimus induced hyperglycemia ([8]; rats, Q-Phosphate 114 mg/kg i.p. with tacrolimus 0.5 mg/kg): can attenuate tacrolimus induced hyperglycemia

Source: US7947733B2, “Phosphorylated pyrone analogs and methods” (Limerick BioPharma, priority 2007, dated 2011)
